For data set [1], the target named is T1, S-Acetyl-coenzyme A synthetase (EC 6.2.1.1) from baker's yeast, free enzyme (Saccharomyces cerevisiae, UniProt Q01574).
T1 construct: purchased Sigma-Aldrich (Germany)
T1 sequence (Q01574 1-713): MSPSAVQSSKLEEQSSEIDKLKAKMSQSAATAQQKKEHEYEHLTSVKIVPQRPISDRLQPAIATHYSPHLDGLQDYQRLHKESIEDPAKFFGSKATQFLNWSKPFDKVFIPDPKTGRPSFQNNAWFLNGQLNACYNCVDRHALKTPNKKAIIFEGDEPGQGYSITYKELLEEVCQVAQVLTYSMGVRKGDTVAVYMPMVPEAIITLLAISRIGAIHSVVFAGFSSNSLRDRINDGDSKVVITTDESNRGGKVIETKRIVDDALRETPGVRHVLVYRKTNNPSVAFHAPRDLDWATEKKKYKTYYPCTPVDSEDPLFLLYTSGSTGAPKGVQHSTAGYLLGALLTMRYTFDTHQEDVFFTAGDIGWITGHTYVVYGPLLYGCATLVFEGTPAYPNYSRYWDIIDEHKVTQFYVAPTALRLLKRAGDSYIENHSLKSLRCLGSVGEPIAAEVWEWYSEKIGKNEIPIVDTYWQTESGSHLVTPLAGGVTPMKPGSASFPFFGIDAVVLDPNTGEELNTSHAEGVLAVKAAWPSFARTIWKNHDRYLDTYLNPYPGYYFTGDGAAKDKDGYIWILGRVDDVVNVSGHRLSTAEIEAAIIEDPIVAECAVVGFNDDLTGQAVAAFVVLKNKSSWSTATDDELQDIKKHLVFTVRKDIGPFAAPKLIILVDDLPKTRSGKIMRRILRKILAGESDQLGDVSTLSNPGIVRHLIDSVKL
Put plainly: Reaction kinetics of free Acetyl CoA-synthetase for acetate (pyrophosphate-molybdate assay, Table 1). It is filed as biochemical. The note with it: acetate substrate at 37°C, ATP 1 mM, CoA 0.5 mM, Lineweaver-Burk plot. The method, then: (§1) The activity of free acetyl CoA synthetase and their bioconjugates with PNIPAm-AEMA or microgel was studied in borate buffer (0.1 M, pH 8), in presence of 20 mM potassium acetate, 4 mM MgCl2, 4 mM glutathione, 1 mM ATP, and 500 µM coenzyme A. The reaction was terminated by addition of acidic molybdate reagent. The pyrophosphate-molybdate complex formed was further reduced by addition of mercaptoethanol and Eikonogen reagent. The obtained coloured product was quantified by measuring the absorption at 590 nm and pyrophosphate concentration was determined (ε = 2.7 x 10^4 M^-1 cm^-1).
(§2) One unit of enzyme activity was defined as the amount of enzyme required to form 1 µmol pyrophosphate per min at pH 8 and 37°C. Bradford micro assay with a sensitivity of 1-10 µg/mL was used to determine protein concentration using bovine serum albumin as the standard protein. […]
(§3) Assuming Michaelis-Menten kinetics for Acetyl CoA-synthetase by the following equations: V = (Vmax [S])/(Km + [S]) [formula] where V is the rate of the reaction, [S] is the concentration of the substrate, Km is the apparent constant, and Vmax is the maximum of reaction velocity. The values for Km and Vmax, were estimated with the help of a Lineweaver-Burk plot for the Michaelis-Menten equation expressed as follows: (1)/(V) = (Km)/(Vmax)[…](1)/([S]) + (1)/(Vmax) [formula] […]

For data set [2], the target named is T2, S-Acetyl-coenzyme A synthetase (EC 6.2.1.1) from baker's yeast, Immobilized enzyme (PNIPAm-AEMA) (Saccharomyces cerevisiae, UniProt Q01574).
T2 construct: purchased Sigma-Aldrich (Germany)
T2 sequence (Q01574 1-713): T1 sequence (Q01574 1-713)
Nature of the data set: Reaction kinetics of PNIPAm-AEMA-immobilized Acetyl CoA-synthetase for acetate (pyrophosphate-molybdate assay, Table 1). It is filed as biochemical. To be noted: acetate substrate at 37°C; ATP 1 mM, CoA 0.5 mM; enzyme covalently immobilized on PNIPAm-AEMA microgel. As for the experimental part:
Acetyl CoA-synthetase was covalently immobilized to PNIPAm-AEMA core-shell microgel using carbodiimide chemistry in 0.1 M Borate buffer at pH 8. Inorganic phosphate present in commercial enzyme preparation (interferes with molybdate assay) was removed by filtration using 30 kDa centrifuge filter tubes (Millipore).
The activity of free acetyl CoA synthetase and their bioconjugates with PNIPAm-AEMA or microgel was studied in borate buffer (0.1 M, pH 8), in presence of 20 mM potassium acetate, 4 mM MgCl2, 4 mM glutathione, 1 mM ATP, and 500 µM coenzyme A. The reaction was terminated by addition of acidic molybdate reagent. The pyrophosphate-molybdate complex formed was further reduced by addition of mercaptoethanol and Eikonogen reagent. The obtained coloured product was quantified by measuring the absorption at 590 nm and pyrophosphate concentration was determined (ε = 2.7 x 10^4 M^-1 cm^-1). […]
as §3

Data set [3] has as its target T1, S-Acetyl-coenzyme A synthetase (EC 6.2.1.1) from baker's yeast, free enzyme. Put plainly: Reaction kinetics of free Acetyl CoA-synthetase for acetate (citrate synthase/malate dehydrogenase coupled assay, Table 2). In kind it is biochemical. To be noted: acetate substrate at 37°C, ATP 1 mM, CoA 0.5 mM, Lineweaver-Burk plot. The method, then:
The activity of free and immobilized Acs was determined spectrophotometrically by following acetyl CoA synthesis at 340 nm wavelength by coupling to Citrate synthase (CS) and malate dehydrogenase (MDH) assay.
The assay medium composition for enzyme activity consists of 20 mM potassium acetate, 4 mM MgCl, 4 mM glutathione, 1 mM ATP, 500 µM co-enzyme A, 1 mM NAD and 4 mM malate in 100mM Tris Cl buffer pH 8. The acetyl CoA synthesized was correlated to the concentration of NADH formed in a coupled assay using […]. One unit of enzyme activity was defined as the amount of enzyme which is required to form 1 µmol of NADH per min at pH 8 and 37°C.
The reaction kinetics of free and immobilized enzymes was studied at various concentrations of acetate (5 mM - 0.3 mM) as a substrate and keeping concentrations of ATP and CoA constant at 1 mM and 0.5 mM, respectively. […]
as §3

In data set [4] the target is T3, S-Acetyl-coenzyme A synthetase (EC 6.2.1.1) from baker's yeast, Immobilized enzyme (PEI-PNIPAm) (Saccharomyces cerevisiae, UniProt Q01574).
T3 construct: purchased Sigma-Aldrich (Germany)
T3 sequence (Q01574 1-713): T1 sequence (Q01574 1-713)
Put plainly: Reaction kinetics of PEI-PNIPAm-immobilized Acetyl CoA-synthetase for acetate (citrate synthase/malate dehydrogenase coupled assay, Table 2). It is filed as biochemical. The note with it: acetate substrate at 37°C; ATP 1 mM, CoA 0.5 mM; enzyme adsorbed on PEI-PNIPAm microgel. As for the experimental part: The immobilization of Acetyl CoA-synthetase on PEI-PNIPAm microgel was achieved via adsorption in 0.1 M Tris-CI buffer at pH 8 for 6 h at 4°C. The conjugate was obtained by centrifugation at 12,000 rpm for 15 min at 25°C and subsequently washed with the same buffer to remove non adsorbed enzymes. Using Micro BCA (for protein concentrations lower than 20 µg/mL) assay kits, the amounts of adsorbed enzyme loaded to the microgel was determined by subtracting the residual protein content in the supernatant from the initial protein content. The enzyme and conjugate were stored in 0.1 M Borate buffer containing 1 mM glutathione and 1 mM magnesium chloride pH 8 for further use.
The activity of free and immobilized Acs was determined spectrophotometrically by following acetyl CoA synthesis at 340 nm wavelength by coupling to Citrate synthase (CS) and malate dehydrogenase (MDH) assay. […]
as §3

Substrate in data set [5]: CC(=O)O
Put plainly: Reaction kinetics of free Acetyl CoA-synthetase for acetate (pyrophosphate-molybdate assay, Table 1). The note with it: other: acetate substrate at 37°C, acetate 5 mM - 0.3 mM, ATP 1 mM, CoA 0.5 mM, Lineweaver-Burk plot, free enzyme, pH 8.0. In kind it is biochemical, Saccharomyces cerevisiae. The method, then: as §1, §2, §3

In the case of `CC(=O)O` [acetate], the Vmax in data set [1] is 8.5x10^-3 ± 0.4x10^-3 U/min; in data set [2], 5.6 x10^-3± 0.1x10^-3 U/min; in data set [3] it was 16x10^-3 ± 1 x10^-3 U/min; in data set [4] it was 44 x10^-3± 2 x10^-3 U/min.

B1: S-Acetyl-coenzyme A synthetase (EC 6.2.1.1) from baker's yeast, free enzyme (Saccharomyces cerevisiae S288C) (protein)
chain: T1 sequence (Q01574 1-713)
notes: purchased Sigma-Aldrich (Germany)
By Km is commonly meant the concentration of substrate that gives half-maximal velocity. On to B1, for which, in data set [5], the Km is 170 ± 30 µM.

(Values after patent EP2921553B1, “Enzymatic reactor system” (Leibniz-Institut für Polymerforschung Dresden e.V., priority 2014, dated 2015).)
